Data from patent US4648996A, “Phenyl substituted-2,4,6,8-nonatetraenoic acid” (Hoffmann-La Roche Inc., priority 1985, dated 1987).
Where two headings read alike, the source gives them in different places.

Experiments:
[1] = tested on: adjuvant arthritis in rats; experiment: Chronic adjuvant arthritis test (Table I); format: in vivo, male Charles River Lewis rats; conditions: for change in vivo at 75 µmol/kg / change in vivo at 76 µmol/kg / change in vivo at 60 µmol/kg / change in vivo at 96 µmol/kg: Rattus norvegicus, 552 h, day 23; for Body Weight Gain: vehicle 28-31
Description: That the compounds of this invention are effective anti-arthritic agents can be seen from the results obtained when these compounds are administered to rats in accordance with the chronic adjuvant arthritis test system disclosed in Billingham and Davies "Handbook of Experimental Pharmacology" (editors J. R. Vane and S. H. Ferreira) Vol. 50/II, pg. 108-144, Springer-Verlag, Berlin, 1979).
In this procedure, adjuvant arthritis was induced by the subplantar injection on day 0 of 0.05 ml of adjuvant [a suspension of heat-killed, dessicated Mycobacterium butyricum, 0.5% (w/v), in heavy mineral oil containing 0.2% digitonin] into the right hind paw of male Charles River Lewis rats (120-140 g) that were housed individually and given food and water ad lib. Paw volumes (both hind paws) were measured immediately after injection of the adjuvant. Paw Volumes were also measured, to follow the development of inflammation-induced swelling in the arthritic paws, at intervals of 3 to 7 days by immersion of the paw to the level of the lateral malleolus in a mercury plethysmograph.
Drugs were administered once a day (starting on the day of adjuvant injection) by […] using Tween 80 (polyoxyethylene sorbitan mono-oleate) at a dose of 0.25 ml/100 g body weight as the vehicle. Arthritic control rats received daily doses of the vehicle only. On day 23-25, the rats were sacrificed, plasma collected and plasma fibrinogen levels determined (ammonium sulfate turbidimetric method) as described by Exner et al., Amer. J. Clin Path, 71:521-527 (1979). Anti-inflammatory activity of the test drugs were determined by comparing the extent of paw swelling (paw volume on a particular day, i.e. day four to day twenty-five, minus the paw volume on day 0) in drug-treated arthritic rats with the extent of paw swelling in the vehicle-treated arthritic rats. Drug induced decreases in the level of plasma fibrinogen, an acute phase protein that is elevated in the plasma of rats with adjuvant-induced arthritis, were also used to quantitate the anti-inflammatory activity.

[2] = tested on: impregnated sponge granuloma in the rat; experiment: Impregnated sponge granuloma test in the rat; format: in vivo, AHH/R female rats (PVG derived)
Description: AHH/R female rats (PVG derived) with an initial weight range of 120-140 g. were used.
Sponge preparation. Pellets (6.5 mm diameter) were punched from cellulose sponge cloth ("Wettex") and 0.1 ml. of a suspension containing 0.5 mg.ml^-1 of heat killed M. tuberculosis (human strains C, DT and PN) in sterile saline was applied to each pellet. The pellets were dried, weighed and autoclaved.
Rats were randomly divided into groups of five and daily dosing with test compounds was commenced. After the fifth dose the rats were anaesthetised with Sagatal (45 mg.kg^-1 i.p.) the backs were shaved and two pellets were implanted subcutaneously (one each side) into each rat through a small dorsal midline incision. The incision was closed and the rats allowed to recover from the anaesthetic.
Seven days after implantation the rats were killed and the pellets were removed, dissected free of extraneous tissue and weighed. Each pellet was then placed in a 4 ml aliquot of distilled water, chopped with fine scissors and sonicated. After centrifugation the Na^+ and K^+ content of the supernatant was determined by flame photometry. In addition the adrenal and thumus glands from each rat were dissected out and weighed and the lower hind limbs were removed for measurement of tibial bone breaking strain. Body weights were also recorded throughout the test period.
The mean ± SE for each of the parameters was calculated and differences from the control values were determined by Student's t test (2-tailed). Percentage reductions of granuloma weight, Na^+ and K^+ content and percentage changes of adrenal and thymus, weight and tibial breaking strain were determined.

[3] = tested on: established adjuvant arthritis in rats; experiment: Effect on the course of established adjuvant arthritis; format: in vivo, Male Lewis rats from Charles River; conditions: 1 mg/kg, 7 days
Description: Male Lewis rats from Charles River were used for these experiments.
Heat-killed, dessicated Mycobacteriam butyricum.
Adjuvant arthritis was induced by the injection of 0.1 ml of adjuvant [a suspension of heat-killed, dessicated Mycobacterium butyricum, 0.5% CW/V) in heavy mineral oil containing 0.2% digitonin] into the base of the tail. The arthritis was allowed to develop for 21 days and then the volume of both hind paws were measured using a mercury plethysmograph. The rats were divided into groups of 8 with equal mean paw volumes and then the rats were treated with Compound A, indomethacin (as a control drug), or vehicle for 7 days at the end of the treatment period, the volumes of both hind paws were again measured to assess antiinflammatory effects. Body weight changes were also followed and, at the end of the experiment, plasma was collected for determination of plasma fibrinogen (Exner et. al., Amer. J. Clin. Path, 71: 521-527).
^b Drugs were administered once a day for 7 days by intubation
^c Change in paw volume/body weight equals paw volume body weight on […]

[4] = tested on: MBSA delayed hypersensitivity in mice; experiment: Delayed hypersensitivity to methylated bovine serum albumin (MBSA); format: in vivo, Male and female MFI mice substrain E33; conditions: 10 mg.kg^-1 oral
Description: Male and female MFI mice substrain E33. Initial weight approximately 25 gm.
Dosing with vehicle and retinoid commenced on day 0 and finished on day 9.
Each group consisted of 4 male and 6 female mice (separately caged). Drugs were dosed orally at a dose volume of 10 ml.kg^-1 (10 doses).

[5] = tested on: adjuvant arthritis in the rat; experiment: Developing adjuvant arthritis in the rat; format: in vivo, AHH/R Female rats (PVG derived); conditions: 15 mg.kg^-1 p.o.
Description: AHH/R Female rats (PVG derived with an initial weight range of 110 to 140 g. were used.
Adjuvant for injection. An homogenized suspension of heat killed M tuberculosis (Human strains C, DT and PN), 5 mg.Ml^-1 in liquid paraffin was prepared.
Rats were randomly split into groups of five and adjuvant arthritis was induced by the sub-plantar injection of 0.1 ml of adjuvant suspension into the right hind paw of each rat. Test compounds were administered by intubation each morning commencing the day of adjuvant injection. Two groups of control rats were dosed with the vehicle as was a group of three normal rats included for comparative purposes. Dosing was carried out daily until the end of the test on day 15 except for the first weekend (days 5 & 6). Treatment groups are shown in Table III and include etretinate as standard retinoid.
Measurements of right hind paw volume were made initially and on days 2 and 4 after and adjufant injection (primary phase). Right and left hind paw volume were then measured, on day 8 and every two or three days until the end of the experiment on day 15 (secondary phase). At this time the mobility of each ankle joint and the incidence and severity of secondary lesions on nose, ears, forepaws, left hind paw and tail were also assessed in terms of degrees of flexion possible and by using an arbitrary scoring system, respectively.
The time course curves for the injected paws were integrated from days 0 to 4 to reflect primary swelling and from days 8 to 15 (secondary swelling). The secondary swelling in the non-injected paw was integrated similarly from days 8 to 15. Calculations were carried out using a specific computer program which computed mean ± se for each integrated area. The significance of differences from controls was determined by Student's t test (2 tailed) and percentage reductions from control areas were calculated. Percentage improvements in joint mobility and percentage reductions in lesion score were also determined. In the latter case the Wilcoxon rank sum test (2 tailed) was used to express the difference from the control score using raw data. Mean body weight change in each group was recorded.

[6] = oral 75 μMol/Kg, read-out: % Reduction in Paw Volume, Left
[7] = oral 75 μMol/Kg, read-out: % Reduction in Paw Volume, Right

CCCCCCCCCOc1ccc(OC)cc1/C=C/C(C)=C/C=C/C(C)=C/C(=O)O
change in vivo at 75 µmol/kg [1, 6]: -24% | change in vivo at 75 µmol/kg [1, 7]: -27% | Plasma fibrinogen % change (reduction) ([1]; oral 75 μMol/Kg): -21% | Body Weight Gain ([1]; oral 75 μMol/Kg): +27 g

C[C@@H]1C[C@H]2[C@@H]3CCC4=CC(=O)C=C[C@]4(C)[C@@]3(F)[C@@H](O)C[C@]2(C)[C@@]1(O)C(=O)CO [Dexamethasone]
% reduction of granuloma K+ ([2]; 0.5 mg.kg^-1 sc): 75.2% | % reduction of granuloma Na+ ([2]; 0.5 mg.kg^-1 sc): 51.2% | % reduction of granuloma Wet weight ([2]; 0.5 mg.kg^-1 sc): 65.5%

CCCCCCCCCOc1ccccc1/C=C/C(C)=C/C=C/C(C)=C/C(=O)O [drawing 5]
change in vivo at 76 µmol/kg ([1]; oral 76 μMol/Kg, read-out: % Reduction in Paw Volume, Left): -58% | change in vivo at 76 µmol/kg ([1]; oral 76 μMol/Kg, read-out: % Reduction in Paw Volume, Right): -43% | Plasma fibrinogen % change (reduction) ([1]; oral 76 μMol/Kg): -55% | Body Weight Gain ([1]; oral 76 μMol/Kg): +27 g

COc1ccc2c(c1)c(CC(=O)O)c(C)n2C(=O)c1ccc(Cl)cc1 [Indomethacin, reference compound]
Plasma fibrinogen % change (reduction) ([1]; oral 3 μMol/Kg): -30% | Plasma Fibrinogen [3]: 978 ± 100 mg/dL | Change in Body Weight ([3]; day 28 minus day 22): 25.6 ± 3.1 g | Change in Paw Volume ([3]; day 28 minus day 22, both hind paws): -1.22 ± 0.15 mL

CCCCCCCCCOc1cccc(F)c1/C=C/C(C)=C/C=C/C(C)=C/C(=O)O
change in vivo at 75 µmol/kg [1, 6]: -68% | change in vivo at 75 µmol/kg [1, 7]: -56% | Plasma fibrinogen % change (reduction) ([1]; oral 75 μMol/Kg): -51% | Body Weight Gain ([1]; oral 75 μMol/Kg): +46 g

CCOC(=O)/C=C(C)/C=C/C=C(C)/C=C/c1c(C)cc(OC)c(C)c1C [Etretinate, reference compound]
% increase paw volume ([4]; 10 doses): 59 ± 9% | % reduction (cf. arachis oil control) ([4]; 10 doses): 46% | Mean body weight change ([4]; female (F)): -2.0 g | Mean body weight change ([4]; male (M)): -0.8 g | Body Weight Change Days 0-15 [5]: +1.0 g | Body Weight Change Days 8-15 [5]: -5.0 g | Joint Mobility (% INC) ([5]; day 15): 50% | Lesion Score (% RDN) ([5]; day 15): 56% | % reduction of paw swelling, Primary (right) ([5]; days 0-4): 9% | % reduction of paw swelling, Secondary (left) ([5]; days 8-15): 67% | % reduction of paw swelling, Secondary (right) ([5]; days 8-15): 30% | % change in adrenal weight ([2]; 15 mg.kg^-1 p.o.): +22.9% | % change in thymus weight ([2]; 15 mg.kg^-1 p.o.): +15.2% | % change in tibial breaking strains ([2]; 15 mg.kg^-1 p.o.): -4.6% | % reduction of granuloma K+ ([2]; 15 mg.kg^-1 p.o.): -3.9% | % reduction of granuloma Na+ ([2]; 15 mg.kg^-1 p.o.): 5.9% | % reduction of granuloma Wet weight ([2]; 15 mg.kg^-1 p.o.): 2.7% | Body Weight change ([2]; 15 mg.kg^-1 p.o.): +13.3 ± 2.6 g | rats that died under anaesthesia ([2]; 15 mg.kg^-1 p.o., 2 control rats also died): 1 rat

CC1=C(/C=C/C(C)=C/C=C/C(C)=C\C(=O)O)C(C)(C)CCC1 [reference compound]
change in vivo at 60 µmol/kg ([1]; oral 60 μMol/Kg, read-out: % Reduction in Paw Volume, Left): -49% | change in vivo at 60 µmol/kg ([1]; oral 60 μMol/Kg, read-out: % Reduction in Paw Volume, Right): -33% | Plasma fibrinogen % change (reduction) ([1]; oral 60 μMol/Kg): -18% | Body Weight Gain ([1]; oral 60 μMol/Kg): -7 g

CCCCCCCCCOc1cccc(Cl)c1/C=C/C(C)=C/C=C/C(C)=C/C(=O)O
change in vivo at 75 µmol/kg [1, 6]: -32% | change in vivo at 75 µmol/kg [1, 7]: -29% | Body Weight Gain ([1]; oral 75 μMol/Kg): +35 g

CCCCCCCCNc1ccccc1/C=C/C(C)=C/C=C/C(C)=C/C(=O)OCC
change in vivo at 75 µmol/kg [1, 6]: -53% | change in vivo at 75 µmol/kg [1, 7]: -53% | Body Weight Gain ([1]; oral 75 μMol/Kg): +24 g

CC(/C=C/c1ccccc1OCCCCCCCCO)=C\C=C\C(C)=C\C(=O)O
change in vivo at 96 µmol/kg ([1]; oral 96 μMol/Kg, read-out: % Reduction in Paw Volume, Left): -49% | change in vivo at 96 µmol/kg ([1]; oral 96 μMol/Kg, read-out: % Reduction in Paw Volume, Right): -37% | Plasma fibrinogen % change (reduction) ([1]; oral 96 μMol/Kg): -35% | Body Weight Gain ([1]; oral 96 μMol/Kg): +27 g
